# Reference: article PMC10674780, “In Vitro and In Vivo Effects of Synthesis Novel Phenoxyacetamide Derivatives as Potent Apoptotic Inducer against HepG2 Cells through PARP-1 Inhibition” (Pharmaceuticals, 2023)
# Target: T1, PARP-1 (Homo sapiens, UniProt P09874)
# T1 construct: gene PARP1
# Experiment: PARP-1 inhibition assay kit (Cat No. […])
# Type: biochemical
# T1 sequence (P09874 2-1014): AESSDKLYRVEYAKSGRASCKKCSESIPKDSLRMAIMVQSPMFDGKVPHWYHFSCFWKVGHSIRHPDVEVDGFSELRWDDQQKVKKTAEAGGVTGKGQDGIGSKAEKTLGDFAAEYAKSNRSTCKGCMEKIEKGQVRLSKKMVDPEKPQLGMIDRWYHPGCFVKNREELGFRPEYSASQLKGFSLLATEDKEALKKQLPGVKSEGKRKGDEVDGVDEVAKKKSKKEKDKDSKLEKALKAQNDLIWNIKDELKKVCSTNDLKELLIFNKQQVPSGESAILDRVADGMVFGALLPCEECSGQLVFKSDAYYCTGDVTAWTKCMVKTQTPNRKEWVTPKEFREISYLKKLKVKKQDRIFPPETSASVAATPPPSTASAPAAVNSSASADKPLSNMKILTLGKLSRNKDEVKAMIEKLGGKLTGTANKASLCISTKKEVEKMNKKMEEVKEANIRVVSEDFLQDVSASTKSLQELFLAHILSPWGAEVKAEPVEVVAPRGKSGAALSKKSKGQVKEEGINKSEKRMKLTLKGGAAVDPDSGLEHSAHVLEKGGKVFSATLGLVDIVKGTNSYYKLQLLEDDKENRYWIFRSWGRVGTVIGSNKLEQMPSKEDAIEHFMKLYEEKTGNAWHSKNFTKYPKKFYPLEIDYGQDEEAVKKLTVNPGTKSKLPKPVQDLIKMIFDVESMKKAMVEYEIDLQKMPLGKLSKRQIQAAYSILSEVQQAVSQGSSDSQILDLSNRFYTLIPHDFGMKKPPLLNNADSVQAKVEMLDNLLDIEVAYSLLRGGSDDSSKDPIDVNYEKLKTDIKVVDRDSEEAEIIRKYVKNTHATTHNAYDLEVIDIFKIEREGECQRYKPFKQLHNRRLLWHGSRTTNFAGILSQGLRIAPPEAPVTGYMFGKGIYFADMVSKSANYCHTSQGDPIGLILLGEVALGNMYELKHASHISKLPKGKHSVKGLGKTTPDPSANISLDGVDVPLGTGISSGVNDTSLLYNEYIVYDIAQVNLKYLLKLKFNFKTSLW
structure (smiles),measurement,value
"NNC(=O)CNC(=O)COc1cc(Cl)c(Cl)cc1Cl [I, N-(2-hydrazineyl-2-oxoethyl)-2-(2.4.5-trichlorophenoxy) acetamide]",IC50,1.52 nM
